Experimental findings from PubChem BioAssay (NCI) are described below.

Molecules are shown by their SMILES. Where “and” joins values, the source holds several entries; their conditions need not be identical. Identical values can stand only once.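 Interpolation was linear, between the two tested concentrations surrounding the appropriate level; five concentrations were tested over 48 hours in 96-well plates. Abbreviation: GI50, concentration required for 50% inhibition of growth. TGI denotes the concentration required for complete inhibition of growth.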

What all share (assay): NCI tumour cell line growth inhibition, 48 h
Assay [1] has as its system M14 melanoma.
Assay [2] concerns SK-MEL-28 melanoma.
For assay [3], the system named is CCRF-CEM leukemia.
The test system of assay [4] is EKVX NSCLC.
In assay [5] the test system is OVCAR-8 ovarian.
The test system of assay [6] is LOX IMVI melanoma.
Assay [7] concerns OVCAR-5 ovarian.

On to `COC(=O)C1C(=O)CC2CCCCC21` (stereo not drawn), for which the TGI in assay [1], in assay [2] and in assay [3] was more than 100 µM in each case.

Take `CN(C)/C=N\c1ccnc(=O)[nH]1`: the TGI in assay [4], in assay [5], in assay [6], in assay [1], in assay [2] and in assay [7] was more than 100 µM each time. Also, the TGI in assay [3] was more than 100 µM.

On to `Cc1ccc(Oc2ccccc2N)cc1`, for which the TGI in assay [4] is more than 100 µM; in assay [5], more than 100 µM; in assay [6] it was more than 100 µM; in assay [1] it was more than 100 µM; in assay [2], 80.2 µM; in assay [7], more than 100 µM. The compound also gave a TGI in assay [3] of more than 100 µM.

Consider `Cl/C(N=Nc1ccccc1)=N/Nc1ccccc1`, for which the TGI in assay [4], in assay [5], in assay [6], in assay [2], in assay [7] and in assay [3] was more than 100 µM throughout.

On to `NNc1cnn(-c2ccccc2)c(=O)c1Cl`, for which the TGI in assay [5], in assay [6], in assay [1], in assay [2], in assay [7] and in assay [3] was more than 100 µM each time.

`Cc1c2c(cc3c1C(=O)C(=O)C1=C3OC[C@@H]1C)C(C)(C)CCC2`: the TGI in assay [4] is 58.7 µM; in assay [5], 52.5 µM; in assay [6], 20.5 µM; in assay [1], 26.9 µM; in assay [2], 27.3 µM; in assay [7] it was 40.2 µM. Moreover, in assay [3], the TGI is 42 µM.

Take `COc1ccc(OC(C(=O)O)C(C)C)c2c1CCCC2=O` (stereo not drawn): the TGI in assay [4], in assay [5], in assay [6], in assay [1], in assay [2] and in assay [7] was more than 100 µM each time. The compound also came in with a TGI in assay [3] of more than 100 µM.

Take `CC(=O)NC(CCCCN)C(=O)NCc1ccccc1` (stereo not drawn): the TGI in assay [4], in assay [5], in assay [6], in assay [1], in assay [2] and in assay [7] was more than 100 µM throughout. In assay [3], the TGI is more than 100 µM.

On to `C#CCNC(=O)NCCCCC(NC(=O)OCc1ccccc1)C(=O)OCc1ccccc1` (stereo not drawn), for which the TGI in assay [4] is more than 100 µM; in assay [5] it was more than 100 µM; in assay [6], more than 82.2 µM; in assay [1], more than 100 µM; in assay [2], more than 100 µM; in assay [7] it was more than 100 µM. This compound also gave a TGI in assay [3] of 41.3 µM.

`[O-]c1ccccc1C=Nc1ccc2c(c1)CCC2.[O-]c1ccccc1C=Nc1ccc2c(c1)CCC2.[O]=[U+2]=[O]`: the GI50 in assay [4] was more than 100 µM; in assay [5], 59.3 µM; in assay [6] it was 9.92 µM; in assay [1], more than 100 µM; in assay [2] it was more than 100 µM; in assay [7], more than 100 µM. For the same compound, in assay [3], the GI50 is 8.39 µM. For the same compound, the TGI in assay [4], in assay [5], in assay [6], in assay [1], in assay [2] and in assay [7] was more than 100 µM in each case. Besides, the TGI in assay [3] was more than 100 µM.

For the compound `CC(C)(O)/C=C/C(=O)[C@](C)(O)[C@H]1[C@H](O)C[C@@]2(C)[C@@H]3CC=C4[C@@H](C[C@H](O)C(=O)C4(C)C)[C@]3(C)C(=O)C[C@]12C`, the GI50 in assay [4] is 0.477 µM; in assay [6] it was 0.0441 µM; in assay [1] it was 0.0563 µM; in assay [2] it was 0.028 µM; in assay [7], 0.692 µM; in assay [3] it was 0.0462 µM. Moreover, the TGI in assay [4] was 0.833 µM and 3.47 µM; in assay [5] it was 19.9 µM; in assay [6] it was 0.198 µM and 0.193 µM; in assay [1], 5.94 µM; in assay [2] it was 0.0828 µM and 0.432 µM; in assay [3], 0.62 µM and 3.04 µM.

Turning to `O=C1OC(c2ccccc2)=N/C1=C\c1ccc(Oc2ccc(Cl)c(Cl)c2)cc1`, the TGI is more than 100 µM in assay [4]; 46 µM in assay [5]; more than 100 µM in assay [1]; more than 100 µM in assay [7]; 59.9 µM in assay [3].

Take `Cc1cc(C)nc(/C(=N\NC(N)=O)C(=O)Nc2nc3ccc(C)cc3s2)c1`: the TGI in assay [4] is more than 100 µM; in assay [5], more than 100 µM; in assay [6], more than 70.5 µM; in assay [1], more than 100 µM; in assay [2], more than 100 µM; in assay [7], more than 100 µM. In addition, the TGI in assay [3] is more than 77.8 µM.

With `C[Si](C)(C)C(CCCCSc1ccccc1)(Sc1ccccc1)Sc1ccccc1`, the TGI in assay [4], in assay [5], in assay [6], in assay [2] and in assay [3] was more than 100 µM each time.

Consider `CCc1cccc(C)c1N1C(=O)C(=O)C(c2nc3ccccc3o2)C(=O)C1=O`, for which the TGI in assay [4], in assay [5], in assay [1], in assay [2], in assay [7] and in assay [3] was more than 100 µM throughout.

`Clc1cccc(N2CCN(CCCN3CCc4c([nH]c5ccccc45)C3c3cccnc3)CC2)c1` (stereo not drawn): the TGI in assay [4] is 35.1 µM; in assay [5] it was 26 µM; in assay [6], 37.9 µM; in assay [1], 4.96 µM and 5.78 µM; in assay [2] it was 20.4 µM; in assay [7], 23.9 µM. The same compound came in with a TGI in assay [3] of more than 100 µM. Moreover, the GI50 in assay [1] was 2.47 µM; in assay [2] it was 5.58 µM; in assay [7], 8.66 µM; in assay [3], 11.9 µM.

Take `COC(=O)CCC12CCC(=O)C1[C@@H](C(=O)OC)C[C@H]2C(=O)OC` (stereo partly drawn): the TGI in assay [4], in assay [5], in assay [6], in assay [1], in assay [7] and in assay [3] was more than 100 µM throughout.

For `O=C(O)c1cc(=O)c2c([nH]c3ccccc32)s1`, the TGI in assay [4], in assay [5], in assay [1], in assay [2], in assay [7] and in assay [3] was more than 100 µM in each case.

Consider `Cc1c(C(=O)/C=C/C=C/c2ccccc2)[n+](=O)c2ccccc2n1[O-]`, for which the TGI is more than 100 µM in assay [4]; more than 100 µM in assay [5]; more than 100 µM in assay [6]; 45.9 µM in assay [1]; 54.6 µM in assay [2]; more than 100 µM in assay [7]. Also, in assay [3], the TGI is more than 100 µM.

Take `CCOC(=O)CCC1(C(=O)OCC)CCCC1=O` (stereo not drawn): the TGI in assay [4], in assay [5], in assay [6], in assay [1], in assay [2] and in assay [7] was more than 100 µM each time. For the same compound, the TGI in assay [3] is more than 100 µM.

For the compound `CNc1ccc2ncccc2c1[N+](=O)[O-]`, the TGI in assay [4], in assay [5], in assay [6], in assay [1], in assay [2] and in assay [7] was more than 100 µM throughout. Besides, in assay [3], the TGI was more than 100 µM.

Turning to `Cc1cc(NC(=O)C2C3C=CC(O3)C2C(=O)O)no1` (stereo not drawn), the TGI is more than 100 µM in assay [4]; 32.6 µM in assay [5]; 29.8 µM in assay [6]; more than 100 µM in assay [1]; more than 100 µM in assay [2]; more than 100 µM in assay [7]. Besides, the TGI in assay [3] is 38.5 µM.

For `C#CCNC(=O)ON1C(=O)CCC1=O`, the TGI in assay [4], in assay [5], in assay [6], in assay [2], in assay [7] and in assay [3] was more than 100 µM throughout.

`CCc1cccc(C)c1NC(=O)CCc1nnc2s/c(=C\c3cccc4ccccc34)c(=O)n12`: the TGI in assay [5], in assay [6], in assay [1], in assay [2], in assay [7] and in assay [3] was more than 100 µM each time.

`CC1(c2cc3c(cc2Br)OCO3)SCCCS1`: the TGI in assay [4], in assay [5], in assay [6], in assay [1], in assay [2] and in assay [7] was more than 100 µM in each case. In addition, the TGI in assay [3] is more than 100 µM.

In the case of `COC(=O)C1=C(CS(=O)c2ccc([N+](=O)[O-])cc2[N+](=O)[O-])C2C=CC1C2` (stereo not drawn), the TGI was more than 100 µM in assay [4]; 80.9 µM in assay [5]; 30.8 µM in assay [6]; more than 100 µM in assay [1]; more than 100 µM in assay [7]; 34.6 µM in assay [3].

In the case of `N#C/C(=C\c1cccc(O)c1O)C(N)=O`, the TGI in assay [4] was more than 100 µM; in assay [5], more than 100 µM; in assay [1], more than 100 µM; in assay [2] it was more than 100 µM; in assay [7], more than 100 µM; in assay [3], 45.3 µM.
